Data: PubChem BioAssay AID651772 (Broad Institute, 2012)
Where “and” joins values, the source holds several entries; their conditions need not be identical. Equal entries are not always repeated. Inconclusive results are not listed. Calls of active or inactive are those of the source.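 How the source made its calls: active means compounds whose fitted curve reaches 40% higher CDK2 Ct shift, meaning less CDK2 mRNA, within twice the top dose; inconclusive means flat curve with 30 to 70% opposite effect, or poor fit; inactive means the rest.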

Tested on: not listed separately
Experiment: CDK2 transcript decrease in melanoma cells – cell-based, SK-MEL-5, RT-qPCR, dry powder samples, orthogonal assay for MITF inhibitor project, dose response (AID 651772)
Settings: SK-MEL-5 CDK2 mRNA, RT-qPCR delta-delta-Ct, overnight

Which outcome does the source give for `NC1=C(NS(=O)(=O)c2ccc(Br)s2)C(=O)c2ccccc2C1=O` here?
The outcome was “inactive”.

Tested on: SK-MEL-5 CDK2 mRNA, RT-qPCR delta-delta-Ct, overnight
Experiment: as above
Settings: not given

For `NC1=C(NC(=O)c2ccccc2)C(=O)c2ccccc2C1=O`, which AC40 is on record?
The AC40 was 882 nM.

For `O=C1C=C(NS(=O)(=O)c2cccs2)C(=O)c2ccccc21`, which AC40 is on record?
The AC40 was 339 nM.

With `NC1=C(NS(=O)(=O)c2ccc(Br)cc2)C(=O)c2ccccc2C1=O` as the compound, how does the AC40 read?
Its AC40 is 9610 nM.

For `CN1CCN(C2=C(NS(=O)(=O)c3ccc(Br)s3)C(=O)c3ccccc3C2=O)CC1`, which AC40 is on record?
The AC40 was 7940 nM.

Which AC40 does the source give for `CCN1CCN(C2=C(NC(=O)c3ccccc3)C(=O)c3ccccc3C2=O)CC1` here?
The AC40 was 2410 nM.

With `O=C1C(Nc2ccc(Cl)cc2)=C(N2CCCC2)C(=O)c2ccccc21` as the compound, how does the AC40 read?
The AC40 was 9910 nM.

For `O=C1C(Nc2ccc(F)cc2)=C(N2CCCCC2)C(=O)c2ccccc21`, which AC40 is on record?
The AC40 was 8220 nM.

With `COC1=C(NS(=O)(=O)c2ccc(Br)cc2)C(=O)c2ccccc2C1=O` as the compound, how does the AC40 read?
Its AC40 is 4290 nM.

With `CC(C)N1CCN(C2=C(Nc3ccc(F)cc3)C(=O)c3ccccc3C2=O)CC1` as the compound, how does the AC40 read?
Its AC40 is 6510 nM.

For `CN1CCN(C2=C(Nc3ccc(F)cc3F)C(=O)c3ccccc3C2=O)CC1`, which AC40 is on record?
The AC40 was 2450 nM.

With `COC1=C(Nc2ccccc2)C(=O)c2ccccc2C1=O` as the compound, how does the AC40 read?
Its AC40 is 204 nM.

Which AC40 does the source give for `CC(C)N1CCN(C2=C(Nc3ccc(F)cc3F)C(=O)c3ccccc3C2=O)CC1` here?
The AC40 was 1770 nM.

With `Cc1nc2ccccc2n1/N=C/c1ccc([N+](=O)[O-])s1` as the compound, how does the AC40 read?
The AC40 was 2920 nM.

Which AC40 does the source give for `NS(=O)(=O)c1ccc(NC2=CC(=O)c3ccccc3C2=O)cc1` here?
Its AC40 is 141 nM.

Which AC40 does the source give for `COC1=C(NS(=O)(=O)c2cccs2)C(=O)c2ccccc2C1=O` here?
The AC40 was 9340 nM.

For `NC1=CC(=O)c2ccccc2C1=O`, which AC40 is on record?
The AC40 was 300 nM.

With `O=C1C=C(Nc2ccccc2)C(=O)c2ccccc21` as the compound, how does the AC40 read?
Its AC40 is 571 nM and 394 nM.

With `COC1=C(NS(=O)(=O)c2ccccc2)C(=O)c2ccccc2C1=O` as the compound, how does the AC40 read?
The AC40 was 3500 nM.

With `NC1=C(NS(=O)(=O)c2ccccc2)C(=O)c2ccccc2C1=O` as the compound, how does the AC40 read?
Its AC40 is 4390 nM.

For `C=CCNC1=C(Cl)C(=O)c2ccccc2C1=O`, which AC40 is on record?
The AC40 was 1460 nM.

For `O=C1C=C(NS(=O)(=O)c2ccc(Br)cc2)C(=O)c2ccccc21`, which AC40 is on record?
Its AC40 is 358 nM.

With `O=C1C(NS(=O)(=O)c2cccs2)=C(c2ccccc2)C(=O)c2ccccc21` as the compound, how does the AC40 read?
The AC40 was 3790 nM.

Which AC40 does the source give for `CCN1CCN(C2=C(Nc3ccc(F)cc3F)C(=O)c3ccccc3C2=O)CC1` here?
Its AC40 is 1410 nM.

Which AC40 does the source give for `CCN1CCN(C2=C(NS(=O)(=O)c3ccc(Br)cc3)C(=O)c3ccccc3C2=O)CC1` here?
Its AC40 is 14100 nM.

Which AC40 does the source give for `O=C1C(Nc2ccccc2)=C(c2ccccc2)C(=O)c2ccccc21` here?
Its AC40 is 7060 nM.

For `O=C(NC1=C(Cl)C(=O)c2ccccc2C1=O)c1ccccc1`, which AC40 is on record?
The AC40 was 203 nM.

For `O=C1C=C(Nc2ccc([N+](=O)[O-])c(C(F)(F)F)c2)C(=O)c2ccccc21`, which AC40 is on record?
The AC40 was 78.7 nM.

For `O=C1C=C(NS(=O)(=O)c2ccccc2)C(=O)c2ccccc21`, which AC40 is on record?
The AC40 was 138 nM.

For `NC1=C(NS(=O)(=O)c2cccs2)C(=O)c2ccccc2C1=O`, which AC40 is on record?
Its AC40 is 1980 nM.
